Legend:
Type in all cases: cell-based, human
[1] = system: BON cells; assay: Guava Nexin apoptosis assay (Annexin V / 7-AAD); conditions: 10 μg/ml rabbit IgG or antibodies, 100 nM octreotide, % of Total
Protocol: Cells were then switched to growth media without FBS and allowed to grow for another 24 hours before applying treatments. Samples were collected and counted in accordance with Guava Technologies' Viacount Flex (Cat#4500-0110) instructions. At the end of each antibody treatment, cells were dissociated from the plate using 1× trypsin-EDTA (Invitrogen Cat#2520). […] Next, phosphate buffer solution (D-PBS) (Invitrogen Cat#14190-144) (Invitrogen) was used as the exchange buffer to resuspend the cell pellet. […] Detection was achieved by using Guava PCA96 instrument and data was analysed by using Guava Nexin software module as (Cat#0500-0250). […] Following the protocol for the Guava Nexin™ assay (Guava Technologies), two different dyes were used to stain for cells undergoing apoptosis: 7-AAD stains for dead and late apoptosis cells (upper right quadrant of each graph in FIG. 10), and Annexin V stains for cells undergoing apoptosis from the early stage (lower right quadrant of each graph in FIG. 10). […] Once every 24 hours for 72 hours (FIGS. 10B, 10C and 10D), cells were collected and tested for apoptosis status using the Guava Nexin™ assay (Guava Technologies).

[2] = system: BON cells; assay: Cell number after 48-hour treatment (Viacount); conditions: after 2 days of daily treatment, 5 μg/ml antibody or rabbit IgG, 100 nM octreotide
Protocol: A serotonin ([…]) assay was performed using Serotonin EIA (Biosource, Cat# KAPL10-0900) to measure serotonin release by BON cells over a 48-hour period with or without treatment. […] After 24 hours, the BON cells were subjected to six different daily treatments (at maximum dosages) and grown in FBS-free cell growth media for 2 days in a sterile tissue culture chamber at 37° C. with 6% CO2. These six treatments were: […] The anti-hSSTR Abs (4)-(6) were antibodies produced in the experiment described in Example 1. At the end of each treatment, 1× Halt Protease Inhibitor cocktail (Pierce, Cat# 78415) was immediately added to each sample and the media was collected from each sample and used for Serotonin detection. Next, cells were dissociated from the plate using 2 ml of 1× trypsin-EDTA (Invitrogen Cat#2520) in cell growth media and incubated at 37° C. with 6% CO2 for 5 minutes. Subsequently, an additional 8 ml of cell growth media was added to neutralize trypsin-EDTA, and subjected to 1000 rpm at 4° C. in 15 ml Falcon tubes using Beckman table top centrifuge. Guava Technologies PCA-96 instrument (tabletop flow cytometer) and Viacount flex reagent (Guava Technologies, Cat# 4500-0100) were then used to determine the number of cells for the abovementioned treatments. The results were as follows: […]

[3] = system: BON cells; assay: Guava Nexin apoptosis assay (Annexin V / 7-AAD); conditions: 10 μg/ml rabbit IgG or antibodies, 100 nM octreotide, % of Total; remark: listed apart in the source
[4] = system: BON cells; assay: MTS cell proliferation assay, growth doubling time
Protocol: The effects of anti-hSSTR subtype 2 and anti-hSSTR subtype 5 antibodies on cell proliferation were tested using CellTiter 96® Aqueous One Solution Cell Proliferation Assay (MTS) (Promega, Cat#G3581). The assay was performed to measure the growth doubling time for BON cells in vitro (FIG. 3, growth doubling time in hours is presented on the Y-axis). The growth doubling time for BON cells following treatment with rabbit IgG was around 28 to 30 hours (similar to vehicle alone). […] Cell growth was detected at 490 nm (colorimetric detection) by using instrument Victor 3V (Perkin Elmer) once every 24 hours in the duration of 96 hours.
The resulting maximal suppression in hours (20 hours) is designated as 100% of growth suppression. The difference measured in doubling time detected between experimental samples and untreated samples divided by the maximal suppression yields the percent growth suppression.
BON cells were seeded, grown and maintained in F12 HAM (Invitrogen, Cat#31765035)/D-MEM (Invitrogen, Cat#10567-014) (50/50) with 10% certified fetal bovine serum (FBS) (Invitrogen, Cat#16000-044) in 96-well cell culture dishes (Costar, Cat# 3590) at a density of 2500 cells/well. […] Cell growth was detected at 490 nm (colorimetric detection) by using instrument Victor 3V (Perkin Elmer) once every 24 hours in the duration of 96 hours.

[5] = system: sh-hSSTR subtype 5-BON cells; assay: Growth in tetracycline-controlled shRNA knock-down cells; conditions: FIG. 5
Excerpt: To validate that cell growth inhibition is caused by the anti-hSSTR antibody in a subtype specific manner, BON cells were stably transfected with plasmids carrying short hairpin RNA shSSTR subtype 2 or shSSTR subtype 5 in which the expression of the shRNAs were under the control of tetracycline. Sh-hSSTR subtype 2 and sh-hSSTR subtype 5 destabilize the target receptor's messenger RNA and, consequently, knock down the expression of the target gene.

`C[C@@H](O)[C@@H]1NC(=O)[C@H](CCCCN)NC(=O)[C@@H](Cc2c[nH]c3ccccc23)NC(=O)[C@H](Cc2ccccc2)NC(=O)[C@@H](NC(=O)[C@H](N)Cc2ccccc2)CSSC[C@@H](C(=O)N[C@H](CO)[C@@H](C)O)NC1=O` [octreotide] was tested, and the “7-AAD+” value ([1]; 24 hours after treatment) was 1.1%, the “Annexin V+” value ([1]; 24 hours after treatment) was 4.3% and the “Early apoptotic cells (Lower Right Quadrant)” value ([1]; 24 hours after treatment) was 3.3%. The “Late apoptotic cells (Upper Right Quadrant)” value ([1]; 24 hours after treatment) was 1.0%, the “Nuclear Debris (Upper Left Quadrant)” value ([1]; 24 hours after treatment) was 0.1% and the “7-AAD+” value ([1]; 48 hours after treatment) was 10.9%. The “Annexin V+” value ([1]; 48 hours after treatment) was 13.7%, the “Early apoptotic cells (Lower Right Quadrant)” value ([1]; 48 hours after treatment) was 3.8% and the “Nuclear Debris (Upper Left Quadrant)” value ([1]; 48 hours after treatment) was 1.0%. For the same molecule, the “7-AAD+” value ([1]; 72 hours after treatment) was 19.8%, the “Annexin V+” value ([1]; 72 hours after treatment) was 26.9% and the “Early apoptotic cells (Lower Right Quadrant)” value ([1]; 72 hours after treatment) was 7.7%. For the same molecule, the “Late apoptotic cells (Upper Right Quadrant)” value ([1]; 72 hours after treatment) was 19.2%, the “Nuclear Debris (Upper Left Quadrant)” value ([1]; 72 hours after treatment) was 0.6% and the number of cells [2] was 7 million cells. The “Live, healthy cells (Lower Left Quadrant)” value (shortened to “Live … (Lower Left Quadrant)”) ([3]; 24 hours after treatment) was 95.7%, the “Late apoptotic cells (Upper Right Quadrant)” value ([3]; 48 hours after treatment) was 10.0% and the “Live … (Lower Left Quadrant)” value ([3]; 48 hours after treatment) was 85.4%. The “Live … (Lower Left Quadrant)” value ([3]; 72 hours after treatment) was 72.5%, the “approximate EC50 (growth)” value ([4]; octreotide 0.5, 1, 10 to 50 nM, FIG. 5) was “single nM” and the doubling time ([4]; saturating octreotide (50 nM)) was ~50 h. For the same molecule, the “growth doubling time under octreotide compared to BON cells” value [5] was “did not change”.

From US20090016989A1, “ANTIBODIES TO HUMAN SOMATOSTATIN RECEPTOR AND METHODS OF USE” (priority 2007, published 2009)
